Each block holds one compound with its values, some of them ahead of it.
What was measured:
[1] = Stability of absorption intensity of coenzyme at 340nm after dissolution in CAPS buffer solution; format: physicochemical; settings: for O.D. change at 340nm (change in absorbance per hour, 1 cm cell): coenzyme 1.1 × 10^-4 M, over 3 hours
Protocol: 1) Coenzyme dissolved in the indicated buffer solution to 1.1 ×
2) Change in absorbance per hour given when measured by the use of a cell
with optical path length of 1 cm.
3) Changes in absorbance of ±0.002A or less over 3 hours immediately
after dissolution are expressed as "not changed".

[2] = Absorption at 340nm of NAD or NADP dissolved in aqueous strong alkali; format: physicochemical; settings: e.g., sodium hydroxide or potassium hydroxide, then gradually decreased
Description: Such changes continuously occur over several hours and the higher an alkali concentration is, the greater change is. It is, therefore, extremely difficult to find out such a condition that an enzyme reaction is stopped without any influence upon absorption of coenzyme, when an aqueous solution of a strong alkali having no buffer action is employed.

GOT = experiment: Inhibitory action of CAPS buffer solution on dehydrogenase reaction, serum GOT diagnostic kit; format: biochemical, human
Description: (§1) For measuring serum GOT or GPT activity, the reaction can be carried out through addition of malic dehydrogenase to the reaction medium in case of GOT and LDH in case of GPT, together with the enzyme substrates such as α-ketoglutaric acid and L-aspartic acid for the former enzyme or α-ketoglutaric acid and L-alanine for the latter, and a reduced form of NAD (hereinafter referred to as NADH) in either case. Oxaloacetic acid derived from aspartic acid with GOT (in case of GPT, pyruvic acid derived from alanine, the GPT case being hereinafter referred to in the parenthesis) is converted to malic acid (lacetic acid) with malic dehydrogenase (lactic dehydrogenase) and NADH concurrently with oxidation of NADH to NAD, which results in decrease of absorbance at 340nm arising from NADH. An amount of the oxaloacetic acid (pyruvic acid) produced by GOT (GPT) is stoichiometrically equal to that of the NADH to be oxidized and a GOT (GPT) activity can be, therefore, determined from an oxidized amount of NADH which is obtained from an absorbance decrease at 340nm.
(§2) Four enzymes which are widely employed for examination in clinical diagnosis among various serum enzymes, were tested on the inhibitory actions by CAPS buffer solution. […]

GPT = experiment: Inhibitory action of CAPS buffer solution on dehydrogenase reaction, serum GPT diagnostic kit; format: biochemical, human
Description: as §1, §2

ALD = experiment: Inhibitory action of CAPS buffer solution on dehydrogenase reaction, serum ALD diagnostic kit; format: biochemical, human
Description: In measuring ALD activity, one can carry out by adding to a reaction medium fructose-1,6-diphosphate which is a substrate, togethe with triose phosphate isomerase (hereinafter referred to as TMI) and glycerol-1-phosphate dehydrogenase (hereinafter referred to as GDH). In this system, the products by ALD are converted to dioxyacetone phosphoric acid, which is then converted to glycerol-1-phosphate by the action of GDH and NADH. NADH is simultaneously oxidized to NAD. Hydrolysis of 1 mole of fructose-1,6-diphosphate with ALD results in oxidation of 2 moles of NADH.
Four enzymes which are widely employed for examination in clinical diagnosis among various serum enzymes, were tested on the inhibitory actions by CAPS buffer solution. Some of our experiments are summarized in the Table 1 wherein changes in absorbance at 340nm during the whole process of the reaction are automatically recorded and expressed in terms of inhibition degree by adding serum to a reaction mixture for proceeding the reaction and then adding thereto CAPS buffer solution with varied concentrations, pH values and amounts added.
1) Diagnostic kits available from Calbiochem U.S.A., used for measuring
GOT, GPT and CPK and diagnostic kits available from Boeringer-Manheim,
West Germany, used for measuring ALD, standard human serum
(Caltrol-Abnormal) available from Calbiochem used for serum. […]

CPK = experiment: Inhibitory action of CAPS buffer solution on dehydrogenase reaction, serum CPK diagnostic kit; format: biochemical, human
Protocol: CPK in serum is increased along with injury of skeletal muscle or heart muscle. For determination of CPK activity, creatine phosphoric acid and adenosine-5'-diphosphate (hereinafter referred to as ADP) are employed as substrates and further hexokinase (hereinafter referred to as HK), glucose, glucose-6-phosphate dehydrogenase (hereinafter referred to as G6PDH) and NADP are added to the reaction medium. By the action of CPK, ADP is converted to adenosine-5'-triphosphate (hereinafter referred to as ATP), while glucose in the reaction medium is converted to glucose-6-phosphate by the action of the ATP and HK. Thereafter, the glucose-6-phosphate is converted to 6-phosphogluconic acid by the action of G6PDH and NADP and NADP is converted to a reduced form of NADP (hereinafter referred to as NADPH), along with the conversion, which results in increased absorbance at 340nm. The ATP amount produced by CPK is stoichiometrically equal to that of NADP to be reduced.
as §2

[3] = Influence of alkaline buffer solutions on absorption intensity of coenzyme at 340nm; format: physicochemical; settings: for Absorption of NAD at 340nm: added to an enzyme reaction mixture containing EDTA
Description: Such increasing action on absorption of NAD may continuously vary with the lapse of time and it is, therefore, difficult to correct influence caused therefrom.

dehydrogenase reaction = experiment: Aqueous alkali solution of p-chloromercurybenzoate as stopping agent for dehydrogenase reaction; format: biochemical; settings: reaction mixture of commercially available diagnostic kits
Description: It is also reported in the art that an aqueous alkali solution of p-chloromercurybenzoate is applicable as a stopping agent for dehydrogenase reaction (E. Raabo, Scandinavian Journal of Clinical & Laboratory Investigation, 17, (1965), 265). […] Then, the prior solution seems to be of no practical use.

[4] = CAPS buffer solution 0.25M,pH12.5

SMILES: NC(=O)c1ccc[n+]([C@@H]2O[C@H](COP(=O)([O-])OP(=O)(O)OC[C@H]3O[C@@H](n4cnc5c(N)ncnc54)[C@H](O)[C@@H]3O)[C@@H](O)[C@H]2O)c1 [NAD, nicotinamide-adenine dinucleotide]
- O.D. change at 340nm (change in absorbance per hour, 1 cm cell) ([1]; CAPS buffer solution 0.25M,pH12.0): ≤ 0.005 A/hr/cm
- O.D. change at 340nm (change in absorbance per hour, 1 cm cell) [1, 4]: ≤ 0.010 A/hr/cm
- O.D. change at 340nm (change in absorbance per hour, 1 cm cell) ([1]; CAPS buffer solution 0.33M,pH11.5): ≤ 0.005 A/hr/cm
- O.D. change at 340nm (change in absorbance per hour, 1 cm cell) ([1]; CAPS buffer solution 0.5M,pH11.5): ≤ 0.010 A/hr/cm
- Stability of coenzyme in CAPS buffer solution ([1]; concentration 0.33M or more or pH 12 or higher): somewhat reduced
- Time to peak of absorption intensity at 340nm [2]: 10 to 20 min

SMILES: NC(=O)c1ccc[n+]([C@@H]2O[C@H](COP(=O)([O-])OP(=O)(O)OC[C@H]3O[C@@H](n4cnc5c(N)ncnc54)[C@H](OP(=O)(O)O)[C@@H]3O)[C@@H](O)[C@H]2O)c1 [NADP, nicotinamide adenine dinucleotide phosphate]
- O.D. change at 340nm (change in absorbance per hour, 1 cm cell) [1, 4]: ≤ 0.005 A/hr/cm
- Stability of coenzyme in CAPS buffer solution ([1]; pH 12.5 or higher): also reduced
- Time to peak of absorption intensity at 340nm [2]: 10 to 20 min

SMILES: [Na+].[OH-] [NaOH soln., sodium hydroxide]
- Complete inhibition concentration with aqueous NaOH soln. (Final concentration), GOT (GOT): > 0.15 N
- Complete inhibition concentration with aqueous NaOH soln. (Final concentration), GPT (GPT): > 0.15 N
- Complete inhibition concentration with aqueous NaOH soln. (Final concentration), ALD (ALD): > 0.1 N
- Complete inhibition concentration with aqueous NaOH soln. (Final concentration), CPK (CPK): > 0.1 N

SMILES: N=C(N)NCCC[C@H](N)C(=O)O [arginine buffer solution, arginine]
- Absorption of NAD at 340nm [3]: increase in absorption of NAD at 340nm

SMILES: NCC(=O)O [glycine buffer solution, glycine]
- Absorption of NAD at 340nm [3]: increase in absorption of NAD at 340nm

- Absorption of NAD ([3]; at the concentration and pH value to inhibit an action of an enzyme): may increase absorption of NAD
SMILES: N=C(N)N [guanidine buffer solution, guanidine]

SMILES: O=C(O)c1cc[c]([Hg][Cl])cc1 [p-chloromercurybenzoate]
- Inhibition of dehydrogenase reaction (dehydrogenase reaction): only partial inhibition

Reference: patent US3985621A, “Stopping agents for enzyme reactions of dehydrogenase systems” (priority 1974, dated 1976)
